# According to patent US6455535B1, “Substituted aminoquinazolinone (thione) derivatives or salts thereof, intermediates thereof, and pest controllers and a method for using the same” (Nihon Nohyaku Co., Ltd., priority 1999, dated 2002):
# What was measured:
# [1] = tested on: greenhouse whitefly (Trialeurodes vaporariorum); experiment: Insecticidal test on greenhouse whitefly, tomato leaf spray (Test Example 3); format: in vivo; conditions: 100 ppm test liquid sprayed on tomato leaf, 20 adults inoculated; for mortality at 100 ppm: Trialeurodes vaporariorum, read-out: insecticidal effect rating (mortality of adults)
# Experimental: Insecticidal Test on Greenhouse Whitefly (Trialeurodes vaporariorum)
# Each compounds of the present invention listed in Table 3 and Table 4 was dispersed in and diluted with water to prepare a test liquid containing 100 ppm of the test compound. By use of a spraygun, the test liquid was sprayed on the surface of a leaf of tomato plant put in a 20 ml-vial bottle containing water on a turn table. After air-dried, the leaf treated with the test liquid was put in a glass cylinder, and inoculated with 20 adults of greenhouse whitefly thereon. After the inoculation, the leaf was placed in a greenhouse, and the number of adults of greenhouse whitefly was counted. The mortality of the adults was calculated similar to that of conducted in Test Example 2, and the insecticidal effect of each one of the test compounds was evaluated by the method identical to Test Example 1.
# [2] = tested on: brown rice planthopper (Nilaparvata lugens); experiment: whole plant or invertebrate; format: in vivo; conditions: 192 h, rice seedlings immersed 30 seconds, 10 third-instar nymphs, eight days after inoculation, read-out: insecticidal effect rating (corrected larval mortality)
# From the text: Insecticidal Effect on Brown Rice Planthopper (Nilaparvata lugens)
# Each substituted aminoquinazolinone (thione) derivative of the general formula (I) or salt thereof of the present invention listed in Tables 3 and 4 was dispersed in and diluted with water to obtain a 500 ppm liquid chemical. Rice seedlings (cultivar: Nihonbare) were immersed in the liquid chemical for 30 seconds and air-dried, after which each seedling was placed in a glass test tube and inoculated with 10 third-instar nymphs of brown rice planthopper, and the test tube was pluged with a cotton plug. Eight days after the inoculation, the dead and alive were counted. The mortality was calculated by the following equation and the control effect was judged according to the criterion described below.
# Corrected larval mortality (%)={(Ca/c−Ta/T)/Ca/c}×100
# Ta: number of alive nymphs in treated groups
# T: number of inoculated nymphs in treated groups
# Ca: number of alive numphs in untreated groups
# c: number of inoculated nymphs in untreated groups
# Criterion: the same as in Test Example 1.
Compound,mortality at 100 ppm [1] [%],mortality at 500 ppm [2] [%],insecticidal effect rating (mortality of adults) [1]
"O=C1Nc2ccc(OC(F)(F)F)cc2CN1/N=C/c1cccnc1 [Compound No. 30, 3-(3-pyridylmethylideneamino)-3,4-dihydro-6-trifluoromethoxy-2(1H)-quinazolinone]",100,100,–
"O=C1Nc2ccc(OC(F)(F)F)cc2CN1NCc1cccnc1 [Compound No. 208, 3-(3-pyridylmethylamino)-3,4-dihydro-6-trifluoromethoxy-2(1H)-quinazolinone]",100,100,–
O=C1Nc2ccc(I)cc2CN1N=Cc1cccnc1 [compound 10],–,–,D or higher
O=C1Nc2ccc(C(F)(F)F)cc2CN1N=Cc1cccnc1 [compound 14],–,–,D or higher
O=C1Nc2ccc(OC(F)F)cc2CN1N=Cc1cccnc1 [compound 38],–,–,D or higher
CCOC(=O)c1ccc2c(c1)CN(N=Cc1cccnc1)C(=O)N2 [compound 78],–,–,D or higher
O=C1Nc2ccc(-c3ccccc3)cc2CN1N=Cc1cccnc1 [compound 86],–,–,D or higher
O=C1Nc2ccc(-c3ccc(Cl)cc3)cc2CN1N=Cc1cccnc1 [compound 90],–,–,D or higher
